Data as given in patent publication US20230332103A1, “Methods and Compositions for Generating Human Forebrain Neural Progenitor Cells and for Maturation Thereof to Parvalbumin+ Interneurons” (Trailhead Biosystems Inc., priority 2021, published 2023).

Key:
[1] = test system: human pluripotent stem cells; test: additional HD-DoE experiment for stage 1 (forebrain differentiation from pluripotency), optimized for FEZF2; type: cell-based; conditions: for impact on expression of FEZF2: dynamic profile, FIG. 6; for factor contribution on expression of FEZF2: positive impact, additional stage 1 experiment optimized for FEZF2, FIG. 5
Protocol: To identify the recipe for stage 1 of differentiation, 96 different combinations of effectors generated using Design-of-Experiments compression through D-optimality were robotically prepared. The effector combinations were prepared in a basal media and were subsequently added to the cells, which were then allowed to differentiate. Three days later RNA extraction was performed, and gene expression was obtained using quantitative PCR analysis. The data were normalized and modeled using partial least squares regression analysis to the effector design, resulting in the generation of gene-specific models, which after model tuning for maximal Q2 predictive power, provided explanation of the effectors ability to control the expression of individual genes, combinatorially, and individually. Solutions within the tested space could then be explored to address desirability.
To further enhance the conditions for forebrain differentiation from pluripotency, an additional HD-DoE experiment was performed. Additional gene regulatory models were obtained that were used for preparation of the differentiation protocol. The factors in this experiment included LDN193189, PD173074, BLU9931, Purmorphamine, SC79, MK2206, ZM336372, PD0325901, CHIR99021, XAV939, UCLA-GP130, Tofacitinib and GO6983. […] Dynamic profile analysis was also used to assess the interaction between the effectors.

[2] = test system: forebrain-committed neural stem cells (stage 1 neural stem cells); test: HD-DoE 12-factor experiment for stage 2 recipe, optimized for NKX2-1; type: cell-based, human; conditions: model maximized for NKX2-1 / dynamic profile, FIG. 7 and 8
In short: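 Forebrain-committed neural stem cells treated for 3 days after stage 1 with combinations of 12 factors (LDN193189, BMP7, PD0325901, MK2206, A8301, XAV939, CHIR99021, purmorphamine, SANT-1, AGN193109, TTNPB, GSI-XX). Response scored as maximal NKX2-1 and minimal PAX6 expression.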

[3] = test system: forebrain-committed neural stem cells (stage 1 neural stem cells); test: factor criticality analysis (dynamic profile analysis) of stage 2 recipe; type: cell-based, human
Protocol: To assess the impact of the elimination of each validated factor, dynamic profile analysis was used and compared the expression level of genes of interest in absence of each finalized factor while others are present.
In the stage 2 recipe, each of the four finalized factors were removed while the other three factors remained present and expression levels of NKX2-1, PAX6 and NKX2-2 were assessed compared to presence of all four factors. The results are summarized in FIG. 13A-B. Absence of PD0325901 reduced the levels of NKX2-1 and NKX2-2 while increasing PAX6 from 5000 to 3200, 100 to 0 and 0 to 5000, respectively. […] Removing XAV939 reduced the levels of NKX2-1 from 5000 to 3000, while increasing both PAX6 and NKX2-2 to 10000 and 200, respectively. Another observation was the interaction between XAV939 and Purmorphamine. In the absence of XAV939, the impact of Purmorphamine on NKX2-1 became negative and, as it is shown in interaction plot of FIG. 14, the level of NKX2-1 is higher when both factors are present.

[4] = test system: human pluripotent stem cells; test: HD-DoE 12-factor experiment for stage 1 recipe, gene expression by quantitative PCR after 3 days; type: cell-based; conditions: for factor contribution on expression of SIX3: model optimized for maximal expression of SIX3, 3-day treatment; for factor contribution on expression of FEZF2: model optimized for maximum expression of FEZF2
Excerpt: This example utilizes a method of High-Dimensional Design of Experiments (HD-DoE), as previously described in Bukys et al. (2020) […] 23:101346. The method employs computerized design geometries to simultaneously test multiple process inputs and offers mathematical modeling of a deep effector/response space. The method allows for finding combinatorial signaling inputs that control a complex process, such as during cell differentiation. It allows testing of multiple plausible critical process parameters, as such parameters impact output responses, such as gene expression. Because gene expression provides hallmark features of the phenotype of, for example, a human cell, the method can be applied to identify, and understand, which signaling pathways control cell fate. In the current example, the HD-DOE method was applied with the intent to find conditions for induction of […] neural progenitor-expressed genes, directly from the pluripotent stem cell state. To develop the recipe for each stage, the impact of agonists and antagonists of multiple signaling pathways (herein called effectors) on the expression of two sets of 53 pre-selected genes, after a 3-day treatment, has been tested and modeled. These effectors are small molecules or proteins that are commonly used during stepwise differentiation of stem cells to specific fates. Choice of the effectors were based on current literature on neural induction in forebrain region of developing brain and differentiation of stem cells to neural progenitors. To test the effectors, experiments with at least 8 factors were designed that can assess the response of cells to 48 or more different combinations of effectors in a range of concentrations. To analyze the models, we focused on expression of genes involved in development and patterning of the anterior neuroectoderm and forebrain including OTX2 (Hoch et al. (2015) Cell Reports 12:482-494), SIX3 (Lagutin et al. (2003) Genes & Development 17:368-379) and FEZF2 (Zhang et al. (2014) Development 141:4794-[…]). At later stages we focused on dorsoventral patterning of telencephalon and gene expressed in ventral forebrain including NKX2-1 and absence of PAX6 which is a dorsal forebrain marker (Stoykova et al. (2000) J. Neurosci. 20:8042-8050). The impact of each effector on gene expression level is defined by a parameter called factor contribution that is calculated for each effector during the modeling. To identify the recipe for stage 1 of differentiation, 96 different combinations of effectors generated using Design-of-Experiments compression through D-optimality were robotically prepared. The effector combinations were prepared in a basal media and were subsequently added to the cells, which were then allowed to differentiate. Three days later RNA extraction was performed, and gene expression was obtained using quantitative PCR analysis. […] Solutions within the tested space could then be explored to address desirability. Optimizing for maximal expression of SIX3 at 3300 and FEZF2 1355 expression values led to robust solutions. This model was derived from testing 12 effectors including AGN193109, LDN193189, CHIR99021, XAV939, IGF2, Purmorphamine, 4-oxo-RA, TTNPB, SR11237, FGF8, PD0325901 and […]. […] The model was also optimized for maximum expression of FEZF2 separately at 3576 expression value to find any additional factors that can boost expression of forebrain genes. […] To find the set of factors that have the potential to optimize all 3 genes in this experiment, a new assessment was done through dynamic profile analysis with focus on maximal expression of OTX2, FEZF2 and SIX3.

[5] = dynamic profile analysis, FIG. 4

| Compound | impact on expression of FEZF2 [1] | factor contribution on expression of FEZF2 [1] | impact on expression of NKX2-1 [2] | expression level of PAX6 in the absence of the effector ([3]; stage 2 recipe, other three factors present, 0 with all four factors) | expression level of NKX2-2 in the absence of the effector ([3]; stage 2 recipe, other three factors present, 100 with all four factors) | expression level of NKX2-1 in the absence of the effector ([3]; stage 2 recipe, other three factors present, 5000 with all four factors) | factor contribution, important input for high expression of SIX3 ([4]; FIG. 2 legend, model optimized for maximum expression of SIX3 as printed) | impact on expression of OTX2 [4, 5] | factor contribution on expression of OTX2 ([4]; positive impact, model of maximum expression of OTX2) | factor contribution on expression of SIX3 ([4]; positive impact) | factor contribution on expression of FEZF2 ([4]; positive impact) | impact on NKX2-1 in the absence of XAV939 ([3]; interaction between XAV939 and Purmorphamine, FIG. 14) | impact on expression of FEZF2 [4, 5] | impact on expression of SIX3 [4, 5] |
| --- | --- | --- | --- | --- | --- | --- | --- | --- | --- | --- | --- | --- | --- | --- |
| c1ccc2c(-c3cnn4cc(-c5ccc(N6CCNCC6)cc5)cnc34)ccnc2c1 [LDN193189] | positive impact | 18 | increase its expression level | below 0 | below 0 | did not significantly change | 24.9 | positive impact | 8 | 16 | 25 |  |  |  |
| c1ccc2c(Oc3nc(Nc4ccc(N5CCOCC5)cc4)c4ncn(C5CCCCC5)c4n3)cccc2c1 [Purmorphamine] | positive impact | 11 | increase its expression level |  |  |  |  | negative effect |  | 5 | 7 | negative | positive impact | positive impact |
